# Laboratory results: patent US9221761B2, “Method for inhibition of deubiquitinating activity” (Vivolux AB, priority 2011, dated 2015)
# What was measured:
# [1] = Dissolution in 25% by weight Kolliphor HS15; assay type: physicochemical; conditions: for amount of compound contained in prepared solution (10 ml): 18 mg starting weight, 25% w/w Kolliphor HS15, ultrasound about 50° C., non-dissolved residue deducted
# Description: Pharmaceutical composition E (solution). For intraperitoneal administration a 25% by weight Kolliphor HS15 stock solution was prepared by melting an entire container of Kolliphor HS15 (Sigma 42966) by warming to 60° C. and diluting with deionized water to 25% w/w. To compound #1570 (18.0 mg) in a 10 mL sample tube was added 10.0 mL of the stock solution and the tube vortexed, treated with ultrasound at about 50° C. for about 2 h, and occasionally heated to about 83° C. […] By the same procedure solutions of compounds #1546 and #1571 were prepared; these compounds were however not fully dissolved. The non-dissolved residue was weighed, and the weight deducted from the starting weight of compound (18 mg).
# [2] = tested on: MelJuSo Ub-YFP reporter cell line; assay: Proteasome inhibition in reporter cell line, YFP accumulation in IncuCyte-FLR; assay type: cell-based; conditions: Table 2; YFP accumulation measured for 48 hours
# Excerpt: Cell culture. MCF7 cells are maintained in MEM/10% fetal calf serum. HCT-116 p53+/+, p53−/−, Bcl-2+/+, PUMA−/− and BAX−/− cells are maintained in McCoy's 5A modified medium/10% fetal calf serum. The HCT-116 p53+/+, p53−/−, PUMA−/− and BAX−/− are generated as described (25). The HCT-116 Bcl-2+/+ cell line was generated by transfecting parental HCT-116 p53+/+ cells with pCEP4 Bcl-2 (Addgene plasmid 16461) (26) and isolating high expression clones. FaDu and LLC3 cells are maintained in DMEM high glucose medium supplemented with 10% fetal calf serum, Na pyruvate, Hepes and non-essential amino acids. 4T1.12B carcinoma cells are maintained in RPMI medium supplemented with 10% fetal calf serum. The proteasome reporter cell line MelJuSo Ub-YFP was generated as described (12). Cells were maintained in Dulbecco's Modified Eagle's Medium/10% fetal calf serum. […] The retinal epithelial cell line was generated as described (28). All cells are maintained at 37° C. in 5% CO2.
# The compound of the invention induces proteasome inhibition. The reporter cell line MelJuSo Ub-YFP, which is engineered to accumulate yellow fluorescent protein (YFP) upon proteasome inhibition (12), was used for compound evaluation. The accumulation of YFP was measured for 48 hours in an IncuCyte-FLR system (Essen Bioscience, Essen, UK), which is an automated fluorescence microscope. Numbers of positive cells per field were used as a measure of proteasome inhibition.
# HCT116 = assay: FMCA (Fluorometric Microculture Cytotoxicity Assay) cytotoxicity; assay type: cell-based; conditions: for cytotoxicity relative to structurally corresponding compounds with a 6-membered ring moiety: HCT-116, 72 hours, survival index, FIGS. 3b, 3d, 3f; for IC50: Table 2, 72 hours of continuous compound exposure
# Description: FIGS. 1a to 1o are diagrams illustrating induction of dose-dependent cytotoxicity after 72 hours of continuous compound exposure to the reporter cell line HCT-116 by embodiments of the compound of the invention, as measured FMCA (Fluorometric Microculture Cytotoxicity Assay), as well as absence of such induction by structurally related compounds not comprised by the invention. Treated cells were compared to untreated controls (survival index);
# Determination of cell apoptosis and viability. For determination of apoptosis parental HCT-116 p53+/+ cells are treated with the increasing doses of the compound of the invention for 24 h. […] HCT-116 cells are seeded in 96-well microtiter plates at 10,000 cells per well and incubated overnight. Cells are treated with indicated drug for 24 h. At the end of the incubation period, NP40 is added to the tissue culture medium to 0.1% and 25 μl of the content of each well was assayed using the M30-Apoptosense® ELISA as previously described (31). Cell viability is determined by measuring acid phosphatase activity or using the FMCA method (32). For the acid phosphatase activity cells are seeded at 5000 cells per well in 96-well culture plates and incubated for 12 h at 37° C. Compounds are added to the cells in growth media and incubated for 72 h at 37° C. Cells are washed with 200 μl warm PBS. 100 μl of para-nitrophenyl phosphate (pNPP, 2 mg/ml) in Na acetate buffer pH 5 (NaAc 0.1 M, 0.1% Triton-X-100) is added per well. Cells are incubated for 2 h after which reaction was stopped by addition of 1N NaOH. Absorbance is measured at 405 nm. The dose-dependent cytotoxicity of a number of embodiments of the compound of the invention is illustrated in FIGS. 1a-1o.
# For the FMCA assay cells are seeded in the drug-prepared 384-well plates using the pipetting robot Precision 2000 (Bio-Tek Instruments Inc., Winooski, Vt.). The plates are incubated for 72 h and then transferred to an integrated HTS SAIGAN Core System consisting of an ORCA robot (Beckman Coulter) with CO2 incubator (Cytomat 2C, Kendro, Sollentuna, Sweden), dispenser module (Multidrop 384, Titertek, Huntsville, Ala.), washer module (ELx 405, Bio-Tek Instruments Inc), delidding station, plate hotels, barcode reader (Beckman Coulter), liquid handler (Biomek 2000, Beckman Coulter) and a multipurpose reader (FLUOstar Optima, BMG Labtech GmbH, Offenburg, Germany) for automated FMCA. Survival index (SI) is defined as the fluorescence of test wells in percentage of controls with blank values subtracted.
# FIGS. 3b, 3d, 3f are diagrams illustrating the cytotoxicity of compounds of the invention nos. 1546, 1547, and 1570 with a 7-membered ring moiety in comparison to structurally corresponding compounds not comprised by the invention with a 6-membered ring moiety. Their induction of dose-dependent cytotoxicity was determined after 72 hours of continuous compound exposure to the reporter cell line HCT-116. Treated cells were compared with untreated controls. Cytotoxicity is visualized as survival index (SI) over the range of about 90% SI to about 0% SI in dependence on compound concentration.
amount of compound contained in prepared solution (10 ml) [1],"dissolution of 18.0 mg in 10.0 mL stock solution ([1]; 25% w/w Kolliphor HS15, ultrasound about 50° C. about 2 h)",Compound,"MeJuSo-UB, lowest effective conc. [2]",cytotoxicity relative to structurally corresponding compounds with a 6-membered ring moiety (HCT116),IC50 (HCT116)
8.5 mg,,C=CC(=O)N1CCC(=Cc2ccc([N+](=O)[O-])cc2)C(=O)C(=Cc2ccc([N+](=O)[O-])cc2)C1 [Compound 1546],2 µM,more cytotoxic,1200 nM
,clear solution,C=CC(=O)N1CCC(=Cc2ccc(F)c([N+](=O)[O-])c2)C(=O)C(=Cc2ccc(F)c([N+](=O)[O-])c2)C1 [Compound 1570],0.25 µM,more cytotoxic,500 nM
11.0 mg,,CC(=O)N1CCC(=Cc2ccc(F)c([N+](=O)[O-])c2)C(=O)C(=Cc2ccc(F)c([N+](=O)[O-])c2)C1 [Compound 1571],0.25 µM,,900 nM
,,O=C1/C(=C/c2ccc(C(F)(F)F)cc2)CCN(C(=O)Cc2ccccn2)C/C1=C\c1ccc(C(F)(F)F)cc1 [Compound 1644],1 µM,,1400 nM
,,CC(=O)OCC(=O)N1CC/C(=C\c2ccc(Cl)c(F)c2)C(=O)/C(=C/c2ccc(Cl)c(F)c2)C1 [Compound 1645],2 µM,,2500 nM
,,O=C1/C(=C/c2ccc(F)c([N+](=O)[O-])c2)CCN(C(=O)Cc2ccccn2)C/C1=C\c1ccc(F)c([N+](=O)[O-])c1 [Compound 1648],0.5 µM,,800 nM
,,O=C1C(=Cc2cc(F)c(F)c(F)c2)CCN(C(=O)Cc2cccnc2)CC1=Cc1cc(F)c(F)c(F)c1 [Compound 1650],1 µM,,1900 nM
,,CC(=O)OCC(=O)N1CC/C(=C\c2cc(F)c(F)c(F)c2)C(=O)/C(=C/c2cc(F)c(F)c(F)c2)C1 [Compound 1651],0.5 µM,,800 nM
,,O=C1/C(=C/c2cc(F)c(F)c(F)c2)CCN(C(=O)Cc2ccccn2)C/C1=C\c1cc(F)c(F)c(F)c1 [Compound 1653],1 µM,,710 nM
,,O=C1C(=Cc2ccc(Cl)c(C(F)(F)F)c2)CCN(C(=O)Cc2cccnc2)CC1=Cc1ccc(Cl)c(C(F)(F)F)c1 [Compound 1655],1 µM,,1000 nM
,,CC(=O)OCC(=O)N1CC/C(=C\c2ccc(Cl)c(C(F)(F)F)c2)C(=O)/C(=C/c2ccc(Cl)c(C(F)(F)F)c2)C1 [Compound 1656],0.5 µM,,700 nM
,,O=C(Cc1ccccn1)C(=O)N1CCC(=Cc2ccc(Cl)c(C(F)(F)F)c2)C(=O)C(=Cc2ccc(Cl)c(C(F)(F)F)c2)C1 [Compound 1658],0.5 µM,,800 nM
,,CC(=O)OCCC(=O)N1CCC(=Cc2ccc(Cl)c(F)c2)C(=O)C(=Cc2ccc(Cl)c(F)c2)C1 [Compound 1660],2 µM,,2400 nM
,,CC(=O)OCCC(=O)N1CCC(=Cc2ccc(F)c([N+](=O)[O-])c2)C(=O)C(=Cc2ccc(F)c([N+](=O)[O-])c2)C1 [Compound 1662],1 µM,,2100 nM
,,CC(=O)OCCC(=O)N1CCC(=Cc2cc(F)c(F)c(F)c2)C(=O)C(=Cc2cc(F)c(F)c(F)c2)C1 [Compound 1664],4 µM,,2800 nM
,,CC(=O)OCCC(=O)N1CCC(=Cc2ccc(Cl)c(C(F)(F)F)c2)C(=O)C(=Cc2ccc(Cl)c(C(F)(F)F)c2)C1 [Compound 1666],1 µM,,1300 nM
,,"(3E,5E)-1-acetyl-5-[(4-fluorophenyl)methylidene]-3-[(4-ethoxyphenyl)methylidene]azepan-4-one [Compound 1579]",8 µM,,5900 nM
